# Data from patent US20240010639A1, “TRIAZINE DIONE DERIVATIVE, PREPARATION METHOD THEREFOR AND APPLICATION THEREOF IN MEDICINE” (Jiangsu Hengrui Pharmaceuticals Co., Ltd., priority 2020, published 2024).
# Where two headings read alike, the source gives them in different places.
# Assay: Toxicokinetic evaluation of 14-day repeated intragastric administration to SD rats
# Format: in vivo
# Description: With SD rats as test animals, the plasma concentrations of the test compounds and the concentrations of the original forms of the compounds in the administration solutions were measured by LC/MS/MS at different time points after intragastric administration. The toxicokinetic performance of the compound disclosed herein was studied in SD rats and its toxicokinetic profile was evaluated.
# 24 SD rats, an equal number of males and females, evenly divided into 6 groups of 4, an equal number of males and females in each group, provided by Vital River Laboratory Animal Technology Co., Ltd.
# A certain amount of the compound of Example 16 was measured out, and 15% PEG400 and 85% (10% TPGS+1% HPMC K100LV) were added to prepare a pale yellow homogenous suspension.
# A certain amount of compound MYK-461 was measured out, and 0.5% MC was added to prepare a colorless clear solution.
# The compound of Example 16 was intragastrically administered at doses of 5 mg/kg, 15 mg/kg and 30 mg/kg, at a volume of 10 mL/kg.
# Compound MYK-461 was administered at doses of 0.5 mg/kg, 1.5 mg/kg and 3 mg/kg, at a volume of 10 mL/kg.
# 0.2-mL blood samples were collected from the orbit 0.5 h, 1.0 h, 2.0 h, 4.0 h, 8.0 h and 24.0 h after administration on day 1, and before administration and 0.5 h, 1.0 h, 2.0 h, 4.0 h, 8.0 hi, 24.0 h after administration on day 7 and day 14, placed into EDTA-K2 anticoagulation tubes, and centrifuged at 10,000 rpm for 1 min (4° C.), and plasma was isolated within 1 h and stored at −20° C. before analysis. The blood collection to centrifugation process was performed under ice bath conditions. Two hours after administration, feeding was resumed.
# Determination of plasma concentrations in SD rats after intragastric administration of different concentrations of test compounds: 20 μL of SD rat plasma at each time point post-dose was mixed with 50 μL of an internal standard solution (internal standard for the compound of Example 16: 100 ng/mL verapamil; internal standard for compound MYK-461: 100 ng(mL camptothecin) and 200 μL of acetonitrile; the mixture was vortexed for 5 min and centrifuged at 3700 rpm for 10 min, and 1 μL of the supernatant was taken for LC/MS/MS analysis.
smiles,measurement,setting,value
"Cc1ccc(F)c([C@H](C)Nc2nc(=O)n(C3CCOCC3)c(=O)[nH]2)c1 [Example 16, (S)-6-((1-(2-Fluoro-5-methylphenyl)ethyl)amino)-3-(tetrahydro-2H-pyran-4-yl)-1,3,5-triazine-2,4(1H,3H)-dione]",accumulation after 14 days of repeated intragastric administration (in words),,did not show significant accumulation
same,Vd/F at 1 day,"both sexes, SD, rat, plasma, po, 5 mg/kg, repeated intragastric 5 mg/kg, Day 1, read-out: Apparent volume of distribution Vz/F",1.27 L/kg
same,AUC,"both sexes, SD, rat, plasma, po, 5 mg/kg, repeated intragastric 5 mg/kg, Day 1, read-out: Area under curve AUC",30000 ng·h/mL
same,CL/F at 1 day,"both sexes, SD, rat, plasma, po, 5 mg/kg, repeated intragastric 5 mg/kg, Day 1, read-out: Clearance CL/F",3.06 mL/min/kg
same,half-life at 1 day,"both sexes, SD, rat, plasma, po, 5 mg/kg, repeated intragastric 5 mg/kg, Day 1, read-out: Half-life T1/2 (converted)",288 min
same,Cmax at 1 day,"both sexes, SD, rat, plasma, po, 5 mg/kg, repeated intragastric 5 mg/kg, Day 1, read-out: Plasma concentration Cmax",5740 ng/mL
same,MRT at 1 day,"both sexes, SD, rat, plasma, po, 5 mg/kg, repeated intragastric 5 mg/kg, Day 1, read-out: Residence time MRT",5 h
same,Vd/F at 7 day,"both sexes, SD, rat, plasma, po, 5 mg/kg, repeated intragastric 5 mg/kg, Day 7, read-out: Apparent volume of distribution Vz/F",1.28 L/kg
same,AUC at 7 day,"both sexes, SD, rat, plasma, po, 5 mg/kg, repeated intragastric 5 mg/kg, Day 7, read-out: Area under curve AUC",28100 ng·h/mL
same,CL/F at 7 day,"both sexes, SD, rat, plasma, po, 5 mg/kg, repeated intragastric 5 mg/kg, Day 7, read-out: Clearance CL/F",2.99 mL/min/kg
same,half-life at 7 day,"both sexes, SD, rat, plasma, po, 5 mg/kg, repeated intragastric 5 mg/kg, Day 7, read-out: Half-life T1/2 (converted)",294 min
same,Cmax at 7 day,"both sexes, SD, rat, plasma, po, 5 mg/kg, repeated intragastric 5 mg/kg, Day 7, read-out: Plasma concentration Cmax",4470 ng/mL
same,MRT at 7 day,"both sexes, SD, rat, plasma, po, 5 mg/kg, repeated intragastric 5 mg/kg, Day 7, read-out: Residence time MRT",6 h
same,Vd/F at 14 day,"both sexes, SD, rat, plasma, po, 5 mg/kg, repeated intragastric 5 mg/kg, Day 14, read-out: Apparent volume of distribution Vz/F",1.24 L/kg
same,AUC at 14 day,"both sexes, SD, rat, plasma, po, 5 mg/kg, repeated intragastric 5 mg/kg, Day 14, read-out: Area under curve AUC",29800 ng·h/mL
same,CL/F at 14 day,"both sexes, SD, rat, plasma, po, 5 mg/kg, repeated intragastric 5 mg/kg, Day 14, read-out: Clearance CL/F",2.8 mL/min/kg
same,half-life at 14 day,"both sexes, SD, rat, plasma, po, 5 mg/kg, repeated intragastric 5 mg/kg, Day 14, read-out: Half-life T1/2 (converted)",306 min
same,Cmax at 14 day,"both sexes, SD, rat, plasma, po, 5 mg/kg, repeated intragastric 5 mg/kg, Day 14, read-out: Plasma concentration Cmax",4860 ng/mL
same,MRT at 14 day,"both sexes, SD, rat, plasma, po, 5 mg/kg, repeated intragastric 5 mg/kg, Day 14, read-out: Residence time MRT",6.2 h
same,Vd/F,"both sexes, SD, rat, plasma, po, 15 mg/kg, repeated intragastric 15 mg/kg, Day 1, read-out: Apparent volume of distribution Vz/F",1.37 L/kg
same,AUC at 1 day,"both sexes, SD, rat, plasma, po, 15 mg/kg, repeated intragastric 15 mg/kg, Day 1, read-out: Area under curve AUC",80400 ng·h/mL
same,CL/F,"both sexes, SD, rat, plasma, po, 15 mg/kg, repeated intragastric 15 mg/kg, Day 1, read-out: Clearance CL/F",3.08 mL/min/kg
same,half-life at 1 day,"both sexes, SD, rat, plasma, po, 15 mg/kg, repeated intragastric 15 mg/kg, Day 1, read-out: Half-life T1/2 (converted)",306 min
same,Cmax at 1 day,"both sexes, SD, rat, plasma, po, 15 mg/kg, repeated intragastric 15 mg/kg, Day 1, read-out: Plasma concentration Cmax",16100 ng/mL
same,MRT at 1 day,"both sexes, SD, rat, plasma, po, 15 mg/kg, repeated intragastric 15 mg/kg, Day 1, read-out: Residence time MRT",5.4 h
same,Vd/F,"both sexes, SD, rat, plasma, po, 15 mg/kg, repeated intragastric 15 mg/kg, Day 7, read-out: Apparent volume of distribution Vz/F",2.13 L/kg
same,AUC,"both sexes, SD, rat, plasma, po, 15 mg/kg, repeated intragastric 15 mg/kg, Day 7, read-out: Area under curve AUC",70900 ng·h/mL
same,CL/F,"both sexes, SD, rat, plasma, po, 15 mg/kg, repeated intragastric 15 mg/kg, Day 7, read-out: Clearance CL/F",3.58 mL/min/kg
same,half-life,"both sexes, SD, rat, plasma, po, 15 mg/kg, repeated intragastric 15 mg/kg, Day 7, read-out: Half-life T1/2 (converted)",390 min
same,Cmax,"both sexes, SD, rat, plasma, po, 15 mg/kg, repeated intragastric 15 mg/kg, Day 7, read-out: Plasma concentration Cmax",16800 ng/mL
same,MRT,"both sexes, SD, rat, plasma, po, 15 mg/kg, repeated intragastric 15 mg/kg, Day 7, read-out: Residence time MRT",6.7 h
same,Vd/F,"both sexes, SD, rat, plasma, po, 15 mg/kg, repeated intragastric 15 mg/kg, Day 14, read-out: Apparent volume of distribution Vz/F",1.45 L/kg
same,AUC,"both sexes, SD, rat, plasma, po, 15 mg/kg, repeated intragastric 15 mg/kg, Day 14, read-out: Area under curve AUC",82900 ng·h/mL
same,CL/F,"both sexes, SD, rat, plasma, po, 15 mg/kg, repeated intragastric 15 mg/kg, Day 14, read-out: Clearance CL/F",2.98 mL/min/kg
same,half-life,"both sexes, SD, rat, plasma, po, 15 mg/kg, repeated intragastric 15 mg/kg, Day 14, read-out: Half-life T1/2 (converted)",336 min
same,Cmax,"both sexes, SD, rat, plasma, po, 15 mg/kg, repeated intragastric 15 mg/kg, Day 14, read-out: Plasma concentration Cmax",14100 ng/mL
same,MRT,"both sexes, SD, rat, plasma, po, 15 mg/kg, repeated intragastric 15 mg/kg, Day 14, read-out: Residence time MRT",6.4 h
same,Vd/F,"both sexes, SD, rat, plasma, po, 30 mg/kg, repeated intragastric 30 mg/kg, Day 1, read-out: Apparent volume of distribution Vz/F",2.26 L/kg
same,AUC,"both sexes, SD, rat, plasma, po, 30 mg/kg, repeated intragastric 30 mg/kg, Day 1, read-out: Area under curve AUC",105000 ng·h/mL
same,CL/F,"both sexes, SD, rat, plasma, po, 30 mg/kg, repeated intragastric 30 mg/kg, Day 1, read-out: Clearance CL/F",4.72 mL/min/kg
same,half-life,"both sexes, SD, rat, plasma, po, 30 mg/kg, repeated intragastric 30 mg/kg, Day 1, read-out: Half-life T1/2 (converted)",336 min
same,Cmax,"both sexes, SD, rat, plasma, po, 30 mg/kg, repeated intragastric 30 mg/kg, Day 1, read-out: Plasma concentration Cmax",18700 ng/mL
same,MRT,"both sexes, SD, rat, plasma, po, 30 mg/kg, repeated intragastric 30 mg/kg, Day 1, read-out: Residence time MRT",6.4 h
same,Vd/F,"both sexes, SD, rat, plasma, po, 30 mg/kg, repeated intragastric 30 mg/kg, Day 7, read-out: Apparent volume of distribution Vz/F",2.15 L/kg
same,AUC,"both sexes, SD, rat, plasma, po, 30 mg/kg, repeated intragastric 30 mg/kg, Day 7, read-out: Area under curve AUC",121000 ng·h/mL
same,CL/F,"both sexes, SD, rat, plasma, po, 30 mg/kg, repeated intragastric 30 mg/kg, Day 7, read-out: Clearance CL/F",4.14 mL/min/kg
same,half-life,"both sexes, SD, rat, plasma, po, 30 mg/kg, repeated intragastric 30 mg/kg, Day 7, read-out: Half-life T1/2 (converted)",354 min
same,Cmax,"both sexes, SD, rat, plasma, po, 30 mg/kg, repeated intragastric 30 mg/kg, Day 7, read-out: Plasma concentration Cmax",21600 ng/mL
same,MRT,"both sexes, SD, rat, plasma, po, 30 mg/kg, repeated intragastric 30 mg/kg, Day 7, read-out: Residence time MRT",6.7 h
same,Vd/F,"both sexes, SD, rat, plasma, po, 30 mg/kg, repeated intragastric 30 mg/kg, Day 14, read-out: Apparent volume of distribution Vz/F",1.69 L/kg
same,AUC,"both sexes, SD, rat, plasma, po, 30 mg/kg, repeated intragastric 30 mg/kg, Day 14, read-out: Area under curve AUC",139000 ng·h/mL
same,CL/F,"both sexes, SD, rat, plasma, po, 30 mg/kg, repeated intragastric 30 mg/kg, Day 14, read-out: Clearance CL/F",3.52 mL/min/kg
same,half-life,"both sexes, SD, rat, plasma, po, 30 mg/kg, repeated intragastric 30 mg/kg, Day 14, read-out: Half-life T1/2 (converted)",336 min
same,Cmax,"both sexes, SD, rat, plasma, po, 30 mg/kg, repeated intragastric 30 mg/kg, Day 14, read-out: Plasma concentration Cmax",20000 ng/mL
same,MRT,"both sexes, SD, rat, plasma, po, 30 mg/kg, repeated intragastric 30 mg/kg, Day 14, read-out: Residence time MRT",6.9 h
